From paper PMC5384650 (Molecular microbiology, 2016) come the findings set out here.

The target of this experiment is T1, threonine dehydratase (IlvA) (Salmonella enterica, UniProt P20506).
T1 sequence (P20506 1-514): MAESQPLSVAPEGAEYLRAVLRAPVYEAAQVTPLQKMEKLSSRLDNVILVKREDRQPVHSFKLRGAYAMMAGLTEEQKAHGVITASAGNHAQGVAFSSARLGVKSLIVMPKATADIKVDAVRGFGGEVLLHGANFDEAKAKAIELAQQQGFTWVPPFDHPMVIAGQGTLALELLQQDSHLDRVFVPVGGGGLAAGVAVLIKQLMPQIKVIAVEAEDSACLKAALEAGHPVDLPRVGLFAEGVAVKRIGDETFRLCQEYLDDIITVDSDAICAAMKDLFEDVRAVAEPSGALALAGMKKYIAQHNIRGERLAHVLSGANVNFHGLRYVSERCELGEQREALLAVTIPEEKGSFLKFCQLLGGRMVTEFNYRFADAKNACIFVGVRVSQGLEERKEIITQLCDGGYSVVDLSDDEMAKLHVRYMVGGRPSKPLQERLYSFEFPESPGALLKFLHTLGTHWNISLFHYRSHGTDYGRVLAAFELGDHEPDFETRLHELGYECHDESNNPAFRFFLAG
The class given is biochemical.

Regarding `NC[C@H](N)C(=O)O` [Dap, L-2,3-diaminopropionate], the Ki was determined as 1700 µM.
